Patent publication US20260069643A1, “COMBINATIONS COMPRISING VITAMIN B2 AND LACTOBACILLUS RHAMNOSUS” (DSM IP Assets B.V., priority 2022, published 2026)

Key:
[1] = system: Akkermansia muciniphila; assay: Long-term SHIME fermentation (colon model), 16S rRNA gene sequencing and flow cytometry: abundance of Akkermansia muciniphila; details: FIG. 3, mucus of the transverse colon, end of three-week treatment vs end of control period (n=3), probiotic 1*10^10 CFU/reactor, vitamin B2 10 mg/day, significance p<0.05
Source text: (§1) The typical reactor setup of the SHIME®, representing the gastrointestinal tract of the adult human, was described by Molly et al. (1993) Applied Microbiology and Biotechnology 39(2):254-258. Inoculum preparation, retention time, pH, temperature settings and reactor feed composition were previously described by Possemiers et al. (2004) FEMS Microbiol Ecol. 49(3):495-507. Compared to the typical setup of the SHIME, the long-term SHIME experiment used for this example included some adaptations. In one reactor, at first, the conditions of the stomach were simulated, before being changed by the computer to conditions simulating the small intestine. […]
(§2) Samples for quantitative 16S-targeted Illumina sequencing were collected 3×/week during the last week of the control and treatment period. […] The obtained high-resolution proportional phylogenetic information (i.e., proportional abundances (%)) was combined with an accurate quantification of total bacterial cells via flow cytometry to obtain quantitative data at phylum, family, and species level. […] Samples were analyzed on a BD Facsverse (BDBiosciences, Erembodegem, Belgium) using the high-flowrate setting and bacteria were separated from medium debris and signal noise by applying a threshold level of 200 on the SYTO channel. […]

[2] = system: Verrucomicrobia; assay: Long-term SHIME fermentation (colon model), 16S rRNA gene sequencing and flow cytometry: abundance of Verrucomicrobia; details: FIG. 1, mucus of the transverse colon, end of three-week treatment vs end of control period (n=3), probiotic 1*10^10 CFU/reactor, vitamin B2 10 mg/day, significance p<0.05
Source text: as §1, §2

[3] = system: Akkermansiaceae; assay: Long-term SHIME fermentation (colon model), 16S rRNA gene sequencing and flow cytometry: abundance of Akkermansiaceae; details: FIG. 2, mucus of the transverse colon, end of three-week treatment vs end of control period (n=3), probiotic 1*10^10 CFU/reactor, vitamin B2 10 mg/day, significance p<0.05
Source text: as §1, §2

Lactobacillus rhamnosus GG
did not significantly change: abundance of Akkermansia muciniphila compared to the control [1] | abundance of Verrucomicrobia compared to the control [2] | abundance of Akkermansiaceae compared to the control [3]
